Test results reported in the NIST ThermoML archive (doi:10.1016/j.jct.2014.07.018).
Numbers after ± are expanded uncertainties.

Assay: molar heat capacity at constant pressure
Conditions: 101.33 kPa, Vacuum adiabatic calorimetry

## CCCCn1cc[n+](C)c1.[I-] [1-butyl-3-methylimidazolium iodide]
79.03 K, Glass
  molar heat capacity at constant pressure: 108.5 ± 0.5 J/K/mol
80 K, Crystal
  molar heat capacity at constant pressure: 101 ± 0.4 J/K/mol
80 K, Glass
  molar heat capacity at constant pressure: 109.4 ± 0.4 J/K/mol
80.72 K, Glass
  molar heat capacity at constant pressure: 110.2 ± 0.5 J/K/mol
80.99 K, Crystal
  molar heat capacity at constant pressure: 102 ± 0.4 J/K/mol
81.32 K, Crystal
  molar heat capacity at constant pressure: 102.2 ± 0.4 J/K/mol
81.39 K, Glass
  molar heat capacity at constant pressure: 110.6 ± 0.5 J/K/mol
82.53 K, Glass
  molar heat capacity at constant pressure: 111.7 ± 0.5 J/K/mol
82.87 K, Crystal
  molar heat capacity at constant pressure: 103.5 ± 0.5 J/K/mol
83.68 K, Crystal
  molar heat capacity at constant pressure: 104.1 ± 0.5 J/K/mol
83.75 K, Glass
  molar heat capacity at constant pressure: 112.7 ± 0.5 J/K/mol
84.35 K, Glass
  molar heat capacity at constant pressure: 113.3 ± 0.5 J/K/mol
84.75 K, Crystal
  molar heat capacity at constant pressure: 105 ± 0.5 J/K/mol
86.18 K, Glass
  molar heat capacity at constant pressure: 114.8 ± 0.5 J/K/mol
86.65 K, Crystal
  molar heat capacity at constant pressure: 106.5 ± 0.5 J/K/mol
88.03 K, Glass
  molar heat capacity at constant pressure: 116.3 ± 0.5 J/K/mol
88.56 K, Crystal
  molar heat capacity at constant pressure: 108 ± 0.5 J/K/mol
89.88 K, Glass
  molar heat capacity at constant pressure: 117.8 ± 0.5 J/K/mol
90 K, Crystal
  molar heat capacity at constant pressure: 109.2 ± 0.5 J/K/mol
90 K, Glass
  molar heat capacity at constant pressure: 117.9 ± 0.6 J/K/mol
90.48 K, Crystal
  molar heat capacity at constant pressure: 109.5 ± 0.5 J/K/mol
91.74 K, Glass
  molar heat capacity at constant pressure: 119.3 ± 0.5 J/K/mol
92.41 K, Crystal
  molar heat capacity at constant pressure: 110.9 ± 0.5 J/K/mol
93.62 K, Glass
  molar heat capacity at constant pressure: 120.8 ± 0.5 J/K/mol
94.34 K, Crystal
  molar heat capacity at constant pressure: 112.5 ± 0.5 J/K/mol
95.5 K, Glass
  molar heat capacity at constant pressure: 122.3 ± 0.5 J/K/mol
96.29 K, Crystal
  molar heat capacity at constant pressure: 113.9 ± 0.5 J/K/mol
97.39 K, Glass
  molar heat capacity at constant pressure: 123.7 ± 0.5 J/K/mol
98.25 K, Crystal
  molar heat capacity at constant pressure: 115.3 ± 0.5 J/K/mol
99.29 K, Glass
  molar heat capacity at constant pressure: 125.2 ± 0.6 J/K/mol
100 K, Crystal
  molar heat capacity at constant pressure: 116.6 ± 0.6 J/K/mol
100 K, Glass
  molar heat capacity at constant pressure: 125.7 ± 0.6 J/K/mol
100.21 K, Crystal
  molar heat capacity at constant pressure: 116.7 ± 0.5 J/K/mol
101.2 K, Glass
  molar heat capacity at constant pressure: 126.6 ± 0.6 J/K/mol
102.18 K, Crystal
  molar heat capacity at constant pressure: 118.2 ± 0.5 J/K/mol
103.12 K, Glass
  molar heat capacity at constant pressure: 128 ± 0.6 J/K/mol
104.16 K, Crystal
  molar heat capacity at constant pressure: 119.5 ± 0.5 J/K/mol
105.04 K, Glass
  molar heat capacity at constant pressure: 129.4 ± 0.6 J/K/mol
106.14 K, Crystal
  molar heat capacity at constant pressure: 120.9 ± 0.5 J/K/mol
106.97 K, Glass
  molar heat capacity at constant pressure: 130.8 ± 0.6 J/K/mol
107.31 K, Crystal
  molar heat capacity at constant pressure: 121.7 ± 0.5 J/K/mol
108.13 K, Crystal
  molar heat capacity at constant pressure: 122.3 ± 0.5 J/K/mol
108.91 K, Glass
  molar heat capacity at constant pressure: 132.2 ± 0.6 J/K/mol
109.45 K, Crystal
  molar heat capacity at constant pressure: 123.1 ± 0.5 J/K/mol
110 K, Crystal
  molar heat capacity at constant pressure: 123.5 ± 0.6 J/K/mol
110 K, Glass
  molar heat capacity at constant pressure: 132.9 ± 0.6 J/K/mol
110.13 K, Crystal
  molar heat capacity at constant pressure: 123.6 ± 0.5 J/K/mol
110.85 K, Glass
  molar heat capacity at constant pressure: 133.5 ± 0.6 J/K/mol
111.45 K, Crystal
  molar heat capacity at constant pressure: 124.4 ± 0.6 J/K/mol
112.13 K, Crystal
  molar heat capacity at constant pressure: 124.9 ± 0.6 J/K/mol
112.8 K, Glass
  molar heat capacity at constant pressure: 134.9 ± 0.6 J/K/mol
113.46 K, Crystal
  molar heat capacity at constant pressure: 125.7 ± 0.6 J/K/mol
114.14 K, Crystal
  molar heat capacity at constant pressure: 126.3 ± 0.6 J/K/mol
114.75 K, Glass
  molar heat capacity at constant pressure: 136.2 ± 0.6 J/K/mol
115.47 K, Crystal
  molar heat capacity at constant pressure: 127.1 ± 0.6 J/K/mol
116.16 K, Crystal
  molar heat capacity at constant pressure: 127.5 ± 0.6 J/K/mol
116.71 K, Glass
  molar heat capacity at constant pressure: 137.6 ± 0.6 J/K/mol
117.49 K, Crystal
  molar heat capacity at constant pressure: 128.4 ± 0.6 J/K/mol
118.17 K, Crystal
  molar heat capacity at constant pressure: 128.8 ± 0.6 J/K/mol
118.68 K, Glass
  molar heat capacity at constant pressure: 138.9 ± 0.6 J/K/mol
119.51 K, Crystal
  molar heat capacity at constant pressure: 129.7 ± 0.6 J/K/mol
120 K, Crystal
  molar heat capacity at constant pressure: 130 ± 0.6 J/K/mol
120 K, Glass
  molar heat capacity at constant pressure: 139.8 ± 0.6 J/K/mol
120.2 K, Crystal
  molar heat capacity at constant pressure: 130.1 ± 0.6 J/K/mol
120.64 K, Glass
  molar heat capacity at constant pressure: 140.2 ± 0.6 J/K/mol
121.54 K, Crystal
  molar heat capacity at constant pressure: 130.9 ± 0.6 J/K/mol
122.22 K, Crystal
  molar heat capacity at constant pressure: 131.4 ± 0.6 J/K/mol
122.62 K, Glass
  molar heat capacity at constant pressure: 141.5 ± 0.6 J/K/mol
123.57 K, Crystal
  molar heat capacity at constant pressure: 132.2 ± 0.6 J/K/mol
124.25 K, Crystal
  molar heat capacity at constant pressure: 132.7 ± 0.6 J/K/mol
124.59 K, Glass
  molar heat capacity at constant pressure: 142.8 ± 0.6 J/K/mol
125.6 K, Crystal
  molar heat capacity at constant pressure: 133.5 ± 0.6 J/K/mol
126.29 K, Crystal
  molar heat capacity at constant pressure: 133.9 ± 0.6 J/K/mol
126.57 K, Glass
  molar heat capacity at constant pressure: 144.1 ± 0.6 J/K/mol
127.64 K, Crystal
  molar heat capacity at constant pressure: 134.7 ± 0.6 J/K/mol
128.33 K, Crystal
  molar heat capacity at constant pressure: 135.1 ± 0.6 J/K/mol
128.55 K, Glass
  molar heat capacity at constant pressure: 145.4 ± 0.6 J/K/mol
129.68 K, Crystal
  molar heat capacity at constant pressure: 135.9 ± 0.6 J/K/mol
130 K, Crystal
  molar heat capacity at constant pressure: 136.1 ± 0.6 J/K/mol
130 K, Glass
  molar heat capacity at constant pressure: 146.4 ± 0.7 J/K/mol
130.37 K, Crystal
  molar heat capacity at constant pressure: 136.4 ± 0.6 J/K/mol
130.54 K, Glass
  molar heat capacity at constant pressure: 146.7 ± 0.6 J/K/mol
131.72 K, Crystal
  molar heat capacity at constant pressure: 137.2 ± 0.6 J/K/mol
132.41 K, Crystal
  molar heat capacity at constant pressure: 137.6 ± 0.6 J/K/mol
132.53 K, Glass
  molar heat capacity at constant pressure: 148 ± 0.6 J/K/mol
133.76 K, Crystal
  molar heat capacity at constant pressure: 138.4 ± 0.6 J/K/mol
134.46 K, Crystal
  molar heat capacity at constant pressure: 138.8 ± 0.6 J/K/mol
134.52 K, Glass
  molar heat capacity at constant pressure: 149.3 ± 0.6 J/K/mol
135.81 K, Crystal
  molar heat capacity at constant pressure: 139.6 ± 0.6 J/K/mol
136.51 K, Crystal
  molar heat capacity at constant pressure: 140.1 ± 0.6 J/K/mol
136.51 K, Glass
  molar heat capacity at constant pressure: 150.6 ± 0.7 J/K/mol
137.87 K, Crystal
  molar heat capacity at constant pressure: 140.8 ± 0.6 J/K/mol
138.51 K, Glass
  molar heat capacity at constant pressure: 151.8 ± 0.7 J/K/mol
138.56 K, Crystal
  molar heat capacity at constant pressure: 141.3 ± 0.6 J/K/mol
139.92 K, Crystal
  molar heat capacity at constant pressure: 142.1 ± 0.6 J/K/mol
140 K, Crystal
  molar heat capacity at constant pressure: 142.1 ± 0.6 J/K/mol
140 K, Glass
  molar heat capacity at constant pressure: 152.8 ± 0.7 J/K/mol
140.51 K, Glass
  molar heat capacity at constant pressure: 153.1 ± 0.7 J/K/mol
140.62 K, Crystal
  molar heat capacity at constant pressure: 142.5 ± 0.6 J/K/mol
141.98 K, Crystal
  molar heat capacity at constant pressure: 143.3 ± 0.6 J/K/mol
142.51 K, Glass
  molar heat capacity at constant pressure: 154.4 ± 0.7 J/K/mol
142.68 K, Crystal
  molar heat capacity at constant pressure: 143.7 ± 0.6 J/K/mol
144.04 K, Crystal
  molar heat capacity at constant pressure: 144.5 ± 0.6 J/K/mol
144.51 K, Glass
  molar heat capacity at constant pressure: 155.7 ± 0.7 J/K/mol
144.74 K, Crystal
  molar heat capacity at constant pressure: 144.9 ± 0.6 J/K/mol
146.1 K, Crystal
  molar heat capacity at constant pressure: 145.7 ± 0.6 J/K/mol
146.51 K, Glass
  molar heat capacity at constant pressure: 157 ± 0.7 J/K/mol
146.8 K, Crystal
  molar heat capacity at constant pressure: 146.1 ± 0.6 J/K/mol
148.16 K, Crystal
  molar heat capacity at constant pressure: 146.9 ± 0.6 J/K/mol
148.52 K, Glass
  molar heat capacity at constant pressure: 158.3 ± 0.7 J/K/mol
148.86 K, Crystal
  molar heat capacity at constant pressure: 147.3 ± 0.6 J/K/mol
150 K, Crystal
  molar heat capacity at constant pressure: 147.9 ± 0.7 J/K/mol
150 K, Glass
  molar heat capacity at constant pressure: 159.3 ± 0.7 J/K/mol
150.22 K, Crystal
  molar heat capacity at constant pressure: 148.1 ± 0.6 J/K/mol
150.52 K, Glass
  molar heat capacity at constant pressure: 159.6 ± 0.7 J/K/mol
150.92 K, Crystal
  molar heat capacity at constant pressure: 148.5 ± 0.6 J/K/mol
152.28 K, Crystal
  molar heat capacity at constant pressure: 149.3 ± 0.6 J/K/mol
152.53 K, Glass
  molar heat capacity at constant pressure: 160.9 ± 0.7 J/K/mol
152.98 K, Crystal
  molar heat capacity at constant pressure: 149.7 ± 0.7 J/K/mol
154.35 K, Crystal
  molar heat capacity at constant pressure: 150.5 ± 0.7 J/K/mol
154.54 K, Glass
  molar heat capacity at constant pressure: 162.2 ± 0.7 J/K/mol
155.05 K, Crystal
  molar heat capacity at constant pressure: 150.8 ± 0.7 J/K/mol
156.41 K, Crystal
  molar heat capacity at constant pressure: 151.6 ± 0.7 J/K/mol
156.54 K, Glass
  molar heat capacity at constant pressure: 163.5 ± 0.7 J/K/mol
157.11 K, Crystal
  molar heat capacity at constant pressure: 152.1 ± 0.7 J/K/mol
158.48 K, Crystal
  molar heat capacity at constant pressure: 152.8 ± 0.7 J/K/mol
158.55 K, Glass
  molar heat capacity at constant pressure: 164.8 ± 0.7 J/K/mol
159.18 K, Crystal
  molar heat capacity at constant pressure: 153.2 ± 0.7 J/K/mol
160 K, Crystal
  molar heat capacity at constant pressure: 153.7 ± 0.7 J/K/mol
160 K, Glass
  molar heat capacity at constant pressure: 165.7 ± 0.7 J/K/mol
160.54 K, Crystal
  molar heat capacity at constant pressure: 154 ± 0.7 J/K/mol
160.56 K, Glass
  molar heat capacity at constant pressure: 166.1 ± 0.7 J/K/mol
161.24 K, Crystal
  molar heat capacity at constant pressure: 154.4 ± 0.7 J/K/mol
162.57 K, Glass
  molar heat capacity at constant pressure: 167.4 ± 0.7 J/K/mol
162.61 K, Crystal
  molar heat capacity at constant pressure: 155.2 ± 0.7 J/K/mol
163.31 K, Crystal
  molar heat capacity at constant pressure: 155.6 ± 0.7 J/K/mol
164.58 K, Glass
  molar heat capacity at constant pressure: 168.7 ± 0.7 J/K/mol
164.68 K, Crystal
  molar heat capacity at constant pressure: 156.4 ± 0.7 J/K/mol
165.38 K, Crystal
  molar heat capacity at constant pressure: 156.8 ± 0.7 J/K/mol
166.59 K, Glass
  molar heat capacity at constant pressure: 170 ± 0.7 J/K/mol
166.74 K, Crystal
  molar heat capacity at constant pressure: 157.5 ± 0.7 J/K/mol
167.44 K, Crystal
  molar heat capacity at constant pressure: 158 ± 0.7 J/K/mol
168.59 K, Glass
  molar heat capacity at constant pressure: 171.4 ± 0.7 J/K/mol
